{"source": "patent US5039662A", "about": "“Peptide with anti-metastasis activity” (Monsanto, priority 1989, dated 1991)", "key": {"HT-1080 cells": {"tested_on": "HT-1080 cells", "assay": "In vitro cell attachment assay", "type": "cell-based", "conditions": "HT-1080 human fibrosarcoma cells; attachment to peptide-coated wells / inhibition of attachment to laminin; FIG. 1", "method": "HT-1080 cells from a human fibrosarcoma (Rasheed, S. et al., Cancer (Philadelphia) 33:1027 (1974) are maintained in Dulbecco's modified Eagle's medium (DMEM) supplemented with 10% fetal calf serum. After the cells are grown to 80% confluency, they are washed with 0.02M phosphate buffer, pH 7.4, without CA ^30 2 and Mg^30 2 and detached with a solution of 0.025% trypsin plus 0.025% ethylenediaminetetraacetic acid (EDTA; GIBCO). The cells are then pelleted by lowspeed centrifugation and resuspended in Eagle's minimal essential medium (EMEM) containing 0.02% bovine serum albumin (BSA, Sigma Chemical Co., St. Louis, Mo.). Cell attachment assays are performed as described in Klebe, R. J. Nature (London) 250:248 (1974), on tissue culture plastic substrates by using 16-mm Falcon tissue culture wells (Fisher Scientific Co., Pittsburg, Pa.) incubated with various peptides or with laminin in 1 mL of EMEM containing 0.02% BSA for 1 or 2 hours at 37° C. Cells (10^5 in 0.1 1 mL) are added to the wells, and the solution is incubated for an additional 1 hour at 37° C. in 95% air and 5% CO2. Subsequently, the wells are rinsed 3 times with 1 mL of phosphate-buffered saline (PBS) to remove unattached cells. Attached cells are trypsinized and counted electronically (Coulter, ZBI). […]"}, "B16F10 melanoma cells": {"tested_on": "B16F10 melanoma cells", "assay": "Lung tumor colonization assay", "type": "in vivo, C57BL/6 female mice", "conditions": "B16F10 cells (5×10^5) mixed with 0.1 mL peptide at 5 mg/mL, tail vein injection, lungs counted after three weeks, FIG. 2", "method": "B16F10 melanoma cells, obtained from I. J. Fidler, M. D., Anderson Hospital, Houston, Tex., are propagated under standard culture conditions. The lung tumor colonization assay is carried out as described in Fidler, I. J., Nature (London) (New Biol) 242:148 (1973). Peptides are dissolved at 5 mg/mL in PBS and are filter-sterilized. The suspension of B16F10 cells (5×10^5) in 0.1 mL of DMEM is mixed with 0.1 mL of the peptide, (or 0.1 ml PBS in Control) incubated for 5 minutes at room temperature, and then injected into the tail vein of syngeneic C57BL/6 female mice (Jackson Labs., Bar Habor, Me.) at 6 weeks of age. Each treatment and control group consists of eight mice. Three weeks after the injections, the mice are killed and the number of pulmonary tumors on the surface of the lungs counted."}}, "note": "Peptide text beside a SMILES is read from it."}
{"compound": "CC[C@H](C)[C@H](NC(=O)[C@H](Cc1ccc(O)cc1)NC(C)=O)C(=O)NCC(=O)N[C@@H](CO)C(=O)N[C@@H](CCCNC(=N)N)C(N)=O", "note": "[AcYIGSR-NH2] (Ac-YIGSR-NH2)", "values": [{"measurement": "cell adhesion activity", "setting": "HT-1080 cells", "value": "having cell adhesion activity"}, {"measurement": "antimetastatic effectiveness (number of pulmonary tumors on the surface of the lungs) relative to YIGSR-NH2", "setting": "B16F10 melanoma cells", "value": "at least twice as effective as YIGSR-NH2"}, {"measurement": "antimetastatic effectiveness (number of pulmonary tumors on the surface of the lungs) relative to YIGSR-NH2", "setting": "B16F10 melanoma cells; listed as peptide of the invention", "value": "at least twice as effective as linear YIGSR-NH2"}]}
